Source: patent publication US7727999B2, “Spiroazacyclic compounds as monoamine receptor modulators” (ACADIA Pharmaceuticals Inc., priority 2001, dated 2010)
Counter-ions that a name gives are not always drawn.

Tests used:
5-HT2A receptor = target: T1, 5-HT2A receptor (Homo sapiens, UniProt P28223); assay: R-SAT functional receptor assay at the 5-HT2A receptor; format: cell-based; conditions: for IC50: R-SAT, NIH3T3 cells, inverse agonism (repression of basal response), read-out: 5HT2A pIC50 (converted)
T1 construct: expressed in transfected cells; host or cells: NIH3T3 cells, pSI mammalian expression vector
T1 sequence (P28223 whole entry): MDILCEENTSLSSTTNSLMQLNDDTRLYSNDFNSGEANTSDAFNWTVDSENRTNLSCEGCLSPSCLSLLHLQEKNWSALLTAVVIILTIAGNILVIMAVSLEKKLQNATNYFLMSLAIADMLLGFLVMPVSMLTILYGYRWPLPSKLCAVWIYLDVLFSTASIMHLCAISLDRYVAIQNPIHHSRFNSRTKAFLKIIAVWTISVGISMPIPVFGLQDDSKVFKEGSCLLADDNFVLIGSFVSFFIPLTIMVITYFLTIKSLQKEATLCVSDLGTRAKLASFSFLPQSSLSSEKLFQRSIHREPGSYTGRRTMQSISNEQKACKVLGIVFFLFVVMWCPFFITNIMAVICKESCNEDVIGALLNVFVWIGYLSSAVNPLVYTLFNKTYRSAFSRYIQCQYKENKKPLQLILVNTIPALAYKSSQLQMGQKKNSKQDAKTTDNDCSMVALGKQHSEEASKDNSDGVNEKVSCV
Text: The EC50 for an agonist is intended to denote the concentration of a compound needed to achieve 50% of a maximal response seen in R-SAT. For inverse agonists, EC50 is intended to denote the concentration of a compound needed to achieve 50% inhibition of an R-SAT response from basal, no compound, levels.
(§1) The functional receptor assay, Receptor Selection and Amplification Technology (R-SAT), was used (with minor modifications from that previously described U.S. Pat. No. 5,707,798) to screen compounds for efficacy at the 5-HT2A receptor. Briefly, NIH3T3 cells were grown in 96 well tissue culture plates to 70-80% confluence. Cells were transfected for 12-16 hours with plasmid DNAs using superfect (Qiagen Inc.) as per manufacture's protocols. R-SAT's were generally performed with 50 ng/well of receptor and 20 ng/well of Beta-galactosidase plasmid DNA-All receptor and G-protein constructs used were in the pSI mammalian expression vector (Promega Inc) as described in U.S. Pat. No. 5,707,798. The 5HT2A receptor gene was amplified by nested PCR from brain cDNA using the oligodeoxynucleotides based on the published sequence (see Saltzman et. al. Biochem. Biophys. Res. Comm. 181:1469-78 (1991)). Large-scale transfections, cells were transfected for 12-16 hours, then trypsinized and frozen in DMSO. Frozen cells were later thawed, plated at 10,000-40,000 cells per well of a 96 well plate that contained drug. With both methods, cells were then grown in a humidified atmosphere with 5% ambient CO2 for five days. Media was then removed from the plates and marker gene activity was measured by the addition of the beta-galactosidase substrate ONPG (in PBS with 5% NP-40). The resulting […] reaction was measured in a spectrophotometric plate reader (Titertek Inc.) at […]. All data were analyzed using the computer program XLFit (IDBSm). Efficacy is the percent maximal repression compared to repression by a control compound (ritanserin in the case of 5HT2A). pIC50 is the negative of the log(IC50), where IC50 is the calculated concentration in Molar that produces 50% maximal repression.
The R-SAT assay (described above in example) was used to investigate the selectivity of 4-(4-Fluoro-benzyl)-3-(4-isobutoxy-benzyl)-8-methyl-1-oxa-3,8-diaza-spiro[4.5]decan-2-one.

5HT 2C = target: T2, 5HT 2C (Homo sapiens, UniProt P28335); assay: R-SAT selectivity profiling, 5HT 2C; format: cell-based
T2 construct: expressed in transfected cells; host or cells: NIH3T3 cells, pSI vector
T2 sequence (P28335 33-458): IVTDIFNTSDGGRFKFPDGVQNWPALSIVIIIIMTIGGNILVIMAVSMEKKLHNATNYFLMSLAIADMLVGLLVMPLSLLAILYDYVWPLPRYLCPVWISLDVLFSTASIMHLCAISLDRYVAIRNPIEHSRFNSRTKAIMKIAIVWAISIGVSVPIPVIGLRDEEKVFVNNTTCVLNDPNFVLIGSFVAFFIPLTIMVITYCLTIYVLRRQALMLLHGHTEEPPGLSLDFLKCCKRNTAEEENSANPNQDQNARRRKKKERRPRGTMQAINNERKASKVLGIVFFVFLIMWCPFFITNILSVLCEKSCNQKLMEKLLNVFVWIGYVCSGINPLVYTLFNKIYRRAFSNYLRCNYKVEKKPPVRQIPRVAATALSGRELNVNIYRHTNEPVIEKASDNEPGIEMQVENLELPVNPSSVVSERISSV
Description: as §1, with “Frozen cells were later thawed, plated at 10,000-40,000 cells per well of a 96 well plate that contained drug. With both methods, cells were then grown in a humidified atmosphere with 5% ambient CO2 for five days.” left out, “Efficacy is the percent maximal repression compared to repression by a control compound (ritanserin in the case of 5HT2A). pIC50 is the negative of the log(IC50), where IC50 is the calculated concentration in Molar that produces 50% maximal repression.” left out

5HT1A = target: T3, 5HT1A (Homo sapiens, UniProt P08908); assay: R-SAT selectivity profiling, 5HT1A; format: cell-based; conditions: antagonist assay, read-out: pEC50 or pIC50 (converted)
T3 construct: expressed in transfected cells; host or cells: NIH3T3 cells, pSI vector
T3 sequence (P08908 1-422): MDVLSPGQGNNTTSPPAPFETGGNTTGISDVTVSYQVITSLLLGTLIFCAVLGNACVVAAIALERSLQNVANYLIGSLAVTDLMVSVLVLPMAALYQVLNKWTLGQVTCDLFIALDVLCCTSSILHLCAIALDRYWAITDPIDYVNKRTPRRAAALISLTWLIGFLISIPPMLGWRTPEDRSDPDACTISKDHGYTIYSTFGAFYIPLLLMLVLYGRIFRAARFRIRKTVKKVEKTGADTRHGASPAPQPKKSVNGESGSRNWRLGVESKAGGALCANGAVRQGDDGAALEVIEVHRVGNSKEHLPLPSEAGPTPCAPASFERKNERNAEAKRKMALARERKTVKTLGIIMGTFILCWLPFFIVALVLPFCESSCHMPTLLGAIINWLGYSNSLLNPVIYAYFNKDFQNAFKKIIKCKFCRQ
Description: as §1, with “Frozen cells were later thawed, plated at 10,000-40,000 cells per well of a 96 well plate that contained drug. With both methods, cells were then grown in a humidified atmosphere with 5% ambient CO2 for five days.” left out, “Efficacy is the percent maximal repression compared to repression by a control compound (ritanserin in the case of 5HT2A). pIC50 is the negative of the log(IC50), where IC50 is the calculated concentration in Molar that produces 50% maximal repression.” left out

m3 = target: T4, m3 (Homo sapiens, UniProt P20309); assay: R-SAT selectivity profiling, m3; format: cell-based; conditions: m3, antagonist assay; read-out: pEC50 or pIC50 (converted)
T4 construct: expressed in transfected cells; host or cells: NIH3T3 cells, pSI vector
T4 sequence (P20309 whole entry): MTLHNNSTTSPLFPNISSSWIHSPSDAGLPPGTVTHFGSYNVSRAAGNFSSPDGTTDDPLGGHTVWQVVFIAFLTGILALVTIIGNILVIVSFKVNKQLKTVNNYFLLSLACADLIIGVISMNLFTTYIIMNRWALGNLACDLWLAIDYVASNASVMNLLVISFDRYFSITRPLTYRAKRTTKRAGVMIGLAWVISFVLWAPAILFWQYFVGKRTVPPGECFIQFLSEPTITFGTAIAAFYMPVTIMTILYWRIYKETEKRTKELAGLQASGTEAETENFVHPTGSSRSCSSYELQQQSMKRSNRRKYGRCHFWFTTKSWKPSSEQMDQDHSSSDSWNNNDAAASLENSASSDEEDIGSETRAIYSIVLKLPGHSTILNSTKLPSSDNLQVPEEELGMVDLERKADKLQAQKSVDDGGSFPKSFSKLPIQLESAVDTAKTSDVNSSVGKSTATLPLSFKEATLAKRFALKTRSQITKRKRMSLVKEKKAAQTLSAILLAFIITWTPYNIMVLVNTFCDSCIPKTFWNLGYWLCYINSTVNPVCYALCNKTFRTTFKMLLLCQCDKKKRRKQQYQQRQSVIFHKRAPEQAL
Description: as §1, with “Frozen cells were later thawed, plated at 10,000-40,000 cells per well of a 96 well plate that contained drug. With both methods, cells were then grown in a humidified atmosphere with 5% ambient CO2 for five days.” left out, “Efficacy is the percent maximal repression compared to repression by a control compound (ritanserin in the case of 5HT2A). pIC50 is the negative of the log(IC50), where IC50 is the calculated concentration in Molar that produces 50% maximal repression.” left out

H1 = target: T5, H1 (Homo sapiens, UniProt P35367); assay: R-SAT selectivity profiling, H1; format: cell-based; conditions: H1, antagonist assay; read-out: pEC50 or pIC50 (converted)
T5 construct: expressed in transfected cells; host or cells: NIH3T3 cells, pSI vector
T5 sequence (P35367 whole entry): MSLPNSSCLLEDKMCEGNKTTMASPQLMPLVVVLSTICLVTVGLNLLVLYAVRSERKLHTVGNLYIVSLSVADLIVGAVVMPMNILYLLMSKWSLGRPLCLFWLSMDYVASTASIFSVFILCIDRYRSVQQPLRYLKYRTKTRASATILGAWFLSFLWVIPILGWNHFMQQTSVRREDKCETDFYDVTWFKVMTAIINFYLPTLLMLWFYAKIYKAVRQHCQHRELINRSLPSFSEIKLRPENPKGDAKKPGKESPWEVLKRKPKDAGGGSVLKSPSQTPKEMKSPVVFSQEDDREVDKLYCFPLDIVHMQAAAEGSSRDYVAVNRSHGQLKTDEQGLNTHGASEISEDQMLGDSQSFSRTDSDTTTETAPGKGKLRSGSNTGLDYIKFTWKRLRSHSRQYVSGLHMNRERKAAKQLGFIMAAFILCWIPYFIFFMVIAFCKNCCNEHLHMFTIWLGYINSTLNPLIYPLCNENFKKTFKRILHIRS
Description: as §1, with “Frozen cells were later thawed, plated at 10,000-40,000 cells per well of a 96 well plate that contained drug. With both methods, cells were then grown in a humidified atmosphere with 5% ambient CO2 for five days.” left out, “Efficacy is the percent maximal repression compared to repression by a control compound (ritanserin in the case of 5HT2A). pIC50 is the negative of the log(IC50), where IC50 is the calculated concentration in Molar that produces 50% maximal repression.” left out

alpha 2A = target: T6, alpha 2A (Homo sapiens, UniProt P08913); assay: R-SAT selectivity profiling, alpha 2A; format: cell-based; conditions: antagonist assay, read-out: pEC50 or pIC50 (converted)
T6 construct: expressed in transfected cells; host or cells: NIH3T3 cells, pSI vector
T6 sequence (P08913 1-465): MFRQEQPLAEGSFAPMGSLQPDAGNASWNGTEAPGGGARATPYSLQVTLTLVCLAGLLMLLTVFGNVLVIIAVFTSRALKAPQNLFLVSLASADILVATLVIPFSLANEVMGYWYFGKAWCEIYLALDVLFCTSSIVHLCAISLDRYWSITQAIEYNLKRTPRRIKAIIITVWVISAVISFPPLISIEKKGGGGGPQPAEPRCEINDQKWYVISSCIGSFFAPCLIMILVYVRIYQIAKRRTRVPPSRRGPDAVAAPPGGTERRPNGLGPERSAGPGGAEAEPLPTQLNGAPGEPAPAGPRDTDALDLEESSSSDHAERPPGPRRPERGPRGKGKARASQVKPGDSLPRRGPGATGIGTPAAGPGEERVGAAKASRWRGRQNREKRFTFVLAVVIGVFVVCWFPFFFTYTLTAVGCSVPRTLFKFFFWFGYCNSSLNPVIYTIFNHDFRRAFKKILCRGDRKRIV
Description: as §1, with “Frozen cells were later thawed, plated at 10,000-40,000 cells per well of a 96 well plate that contained drug. With both methods, cells were then grown in a humidified atmosphere with 5% ambient CO2 for five days.” left out, “Efficacy is the percent maximal repression compared to repression by a control compound (ritanserin in the case of 5HT2A). pIC50 is the negative of the log(IC50), where IC50 is the calculated concentration in Molar that produces 50% maximal repression.” left out

[1] = tested on: MK-801-induced hyperactivity in mice; assay: Attenuation of MK-801 (dizocilpine)-induced hyperactivity in mice; format: in vivo; conditions: for MED (mg/kg) p.o.: mice treated with MK801, oral administration; for dose giving statistically significant decrease of MK-801-induced hyperactivity compared to vehicle control: 0.3 mg/kg dizocilpine i.p.
Description: Male Non-Swiss Albino mice (Harlan Sprague-Dawley) were housed (4 mice/cage) in rooms with temperature and humidity controlled and water and food (Harlan Teklad) freely available. Mice were kept on a 12-hr light:dark cycle. For locomotor experiments, plastic 20×20×30 cm activity cages were equipped with photocell beams (AccuScan Instruments).
(§2) For hyperactivity experiments, mice were treated with 0.3 mg/kg dizocilpine i.p. 15 min before the session. Mice were treated with 69NLS75 s.c. 10 min before the session or p.o. 30 min before the session and placed into the activity cages. For spontaneous activity, 69NLS75 was administered alone. Locomotor data were collected during a 15 min session without habituation in a lit room. Each dose combination was tested in a separate group of animals (n=8). Distance traveled (cm) was calculated and averaged followed by ANOVA and post-hoc Dunnett's t-test comparisons.
The effect of various compounds on locomotor activity in mice treated with MK801 was observed as described above.
Animals received 0.1-30 mg/kg of the compound indicated via subcutaneous injection or oral administration. MED indicates the minimum effective dose at which a statistically significant reduction of locomotor activity (described above) was observed. MED=minimum effective dose in vivo.

[2] = tested on: spontaneous locomotor activity; assay: Spontaneous locomotor activity in mice; format: in vivo; conditions: at doses that attenuate MK-801 hyperactivity; compound administered alone
Description: as §2, with “Male Non-Swiss Albino mice (Harlan Sprague-Dawley) were housed (4 mice/cage) in rooms with temperature and humidity controlled and water and food (Harlan Teklad) freely available. Mice were kept on a 12-hr light:dark cycle. For locomotor experiments, plastic 20×20×30 cm activity cages were equipped with photocell beams (AccuScan Instruments). For hyperactivity” for “For hyperactivity”

[3] = efficacy: percent maximal repression compared to ritanserin
[4] = minimum effective dose for statistically significant reduction of locomotor activity

CC(C)COc1ccc(CN2C(=O)OC3(CCN(C)CC3)[C@@H]2Cc2ccc(F)cc2)cc1 (single isomer, unassigned) [Compound 78NLS59, hydrochloride] was tested, and the “enantiomer preference at the 5-HT2A receptor in vitro” value (5-HT2A receptor; (S)- versus (R)-enantiomer, Table 1) was “eutomer”, the IC50 (5-HT2A receptor) was 0.251 nM and the 5HT2A % inhibition (5-HT2A receptor; [3]) was 98%.
With CC(C)COc1ccc(CN2C(=O)OC3(CCN(C)CC3)C2Cc2ccc(F)cc2)cc1.Cl (racemic) [Compound 69NLS75, 4-(4-Fluorobenzyl)-3-(4-isobutoxybenzyl)-8-methyl-1-oxa-3,8-diaza-spiro[4.5]decan-2-one, hydrochloride] the “efficacy in brackets (%)” value (5-HT2A receptor; 5HT2A, inverse agonist assay) was 94%, the “pEC50 or pIC50” value (5-HT2A receptor; 5HT2A, inverse agonist assay) was 9.5 and the IC50 (5-HT2A receptor) was 0.316 nM. For the same compound, the Emax (5-HT2A receptor; efficacy: percent maximal repression compared to ritanserin, read-out: 5HT2A % inhibition) was 94%, the “efficacy in brackets (%)” value (5HT 2C) was 77% and the IC50 (5HT 2C; 5HT 2C, inverse agonist assay, read-out: pEC50 or pIC50 (converted)) was 31.6 nM. The IC50 (5HT1A) was 398 nM, the IC50 (m3) was 398 nM and the IC50 (H1) was 200 nM. The IC50 (alpha 2A) was 501 nM, the “effect on MK-801-induced hyperactivity in mice” value ([1]; distance traveled, 15 min session) was “dose-related decrease” and the “MED (mg/kg) p.o.” value [1, 4] was 3 mg/kg. For the same compound, the “MED (mg/kg) s.c.” value ([1]; minimum effective dose for statistically significant reduction of locomotor activity, mice treated with MK801, subcutaneous injection) was 3 mg/kg, the “dose giving statistically significant decrease of MK-801-induced hyperactivity compared to vehicle control” value ([1]; p.o. 30 min before session) was 3 mg/kg and the “dose giving statistically significant decrease of MK-801-induced hyperactivity compared to vehicle control” value ([1]; s.c. 10 min before session) was 3 mg/kg. The “effect on spontaneous locomotor activity” value [2] was “no effect”.
Compound CC(C)COc1ccc(CN2C(=O)OC3(CCN(C)CC3)[C@H]2Cc2ccc(F)cc2)cc1.Cl (single isomer, unassigned) [Compound 78NLS62, hydrochloride] has an IC50 (5-HT2A receptor) of 6.31 nM.
For CC(C)COc1ccc(CN2C(=O)OC3(CCN(CCC4OCCO4)CC3)C2Cc2ccc(F)cc2)cc1.Cl (centres unmarked) [Compound 69NLS79-II, 8-(2-[1,3]Dioxolan-2-yl-ethyl)-4-(4-fluorobenzyl)-3-(4-isobutoxybenzyl)-1-oxa-3,8-diaza-spiro[4.5]decan-2-one, hydrochloride], the “MED (mg/kg) p.o.” value [1, 4] was 3 mg/kg.
CC(C)COc1ccc(CN2C(=O)OC3(CCN(C)CC3)[C@H]2Cc2ccc(F)cc2)cc1.Cl (single isomer, unassigned) [Compound 78NLS62] showed a 5HT2A % inhibition (5-HT2A receptor; [3]) of 89%.
With CN1CCC2(CC1)OC(=O)N(Cc1ccc(OCC3CC3)cc1)C2Cc1ccc(F)cc1.Cl (centres unmarked) [Compound 69NLS52, 3-(4-Cyclopropylmethoxybenzyl)-4-(4-fluorobenzyl)-8-methyl-1-oxa-3,8-diaza-spiro[4.5]decan-2-one, hydrochloride] the “MED (mg/kg) p.o.” value [1, 4] was 10 mg/kg.
